Data as given in US11096985B2, “Antimicrobial peptides, their variants and uses” (priority 2015, dated 2021).
Where a SMILES comes first, the peptide text is derived from it. [ ]: non-standard residue; d: D form.

Experiments:
[1] = test system: clinical strains of Pseudomonas aeruginosa; assay: MIC, clinical strains of P. aeruginosa; assay type: cell-based; parameters: unit: μg/ml; details: microdilution, Muller Hinton broth-cation adjusted, 0.02% BSA, 0.2% acetic acid
Procedure: (§1) Minimum inhibition concentrations (MICs) were determined against Escherichia coli (ATCC 25922), Staphylococcus aureus (ATCC 25923), Klebsiella pneumoniae (ATCC 10031) and Pseudomonas aeruginosa (ATCC 27853). Also clinical strains of E. coli, K. pneumoniae, E. cloacae, P. aeruginosa, Serratia marcescens, Proteus mirabilis, S. pneumoniae, Acinetobacter baumannii, A. johnsonii and S. aureus were used for MICs assays. Additionally, clinical strains of yeast including Candida albicans, C. glabrata, C. parapsilosis and C. quillermondiae were used. The susceptibility of these microorganisms to Chain peptides were determined using micro broth dilution assay. Colonies of the respective microorganism from Muller Hinton (MH) agar plates incubated overnight were suspended in MH broth media and final concentration of microorganism was adjusted to 5.0×10^5 cfu/ml. An aliquot of 10 μl of each Chain peptide, or gentamicin, tetracycline as reference antibiotics were added in differing concentrations along with 90 μl of bacterial suspension to 96 well polypropylene plates and incubated at 37° C. for 20 to 24 hours. Concentrations of Chain peptides and reference antibiotics ranged from 0.125 to 128 μg/ml and the MICs were recorded as the lowest concentration with no visual growth of bacteria. Similarly, antifungal MICs were tested in Potato dextrose broth.
(§2) Clinical strains of yeasts including Candida albicans, C. glabrata, C. parapsilosis and C. quillermondiae were also tested with the 12 Chain peptides. The minimum inhibitory concentration (MICs) varied between these peptides and are presented in Tables 4a, 4b, 4c and 5a, 5b, 5c. Peptides Chain 105, 201 and 308 are broad spectrum antimicrobials with MICs between 0.5-32 μg/ml against all the bacteria and yeasts tested, except Serratia marcescens and Proteus mirabilis, against which the MICs were between 64-128 μg/ml. Peptide Chain 306 has narrow spectrum activity against E.coli at 1 μg/ml and for the rest of the bacterial strains at >32 μg/ml (FIG. 10).

[2] = test system: clinical strains of Candida albicans; assay: MIC, clinical yeast strains, Candida albicans; assay type: cell-based; parameters: unit: μg/ml
Procedure: as §1, §2

[3] = test system: clinical strains of C. quillermondiae; assay: MIC, clinical yeast strains, C. quillermondiae; assay type: cell-based; details: C. quillermondiae clinical yeast strain 1
Procedure: as §1, §2

[4] = test system: clinical strains of C. parapsilosis; assay: MIC, clinical yeast strains, C. parapsilosis; assay type: cell-based, Candida parapsilosis; parameters: unit: μg/ml
Procedure: as §1, §2

[5] = test system: clinical strains of Serratia marcescens; assay: MIC, clinical strains of Serratia marcescens; assay type: cell-based; parameters: unit: µg/mL; details: microdilution, Muller Hinton broth-cation adjusted, 0.02% BSA, 0.2% acetic acid
Procedure: as §1, §2

[6] = test system: clinical strains of C. glabrata; assay: MIC, clinical yeast strains, C. glabrata; assay type: cell-based, Candida glabrata; parameters: unit: μg/ml
Procedure: as §1, §2

[7] = test system: clinical strains of Klebsiella pneumoniae; assay: MIC, clinical strains of K. pneumoniae; assay type: cell-based; parameters: unit: μg/ml; details: microdilution, Muller Hinton broth-cation adjusted, 0.02% BSA, 0.2% acetic acid
Procedure: as §1, §2

[8] = test system: clinical strains of Escherichia coli; assay: MIC, clinical strains of E. coli; assay type: cell-based; parameters: unit: μg/ml; details: microdilution, Muller Hinton broth-cation adjusted, 0.02% BSA, 0.2% acetic acid
Procedure: as §1, §2

[9] = test system: clinical strains of Staphylococcus aureus; assay: MIC, clinical strains of S. aureus; assay type: cell-based; parameters: unit: μg/ml; details: microdilution, Muller Hinton broth-cation adjusted, 0.02% BSA, 0.2% acetic acid
Procedure: as §1, §2

[10] = test system: clinical strains of Proteus mirabilis; assay: MIC, clinical strains of Proteus mirabilis; assay type: cell-based; parameters: unit: µg/mL; details: microdilution, Muller Hinton broth-cation adjusted, 0.02% BSA, 0.2% acetic acid
Procedure: as §1, §2

[11] = test system: clinical strains of Streptococcus pneumoniae; assay: MIC, clinical strains of Streptococcus pneumoniae; assay type: cell-based; parameters: unit: µg/mL; details: microdilution, Muller Hinton broth-cation adjusted, 0.02% BSA, 0.2% acetic acid
Procedure: as §1, §2

[12] = test system: clinical strains of Enterobacter cloacae; assay: MIC, clinical strains of Enterobacter cloacae; assay type: cell-based; parameters: unit: μg/ml; details: microdilution, Muller Hinton broth-cation adjusted, 0.02% BSA, 0.2% acetic acid
Procedure: as §1, §2

`CC(C)C[C@@H](NC(=O)[C@H](N)CCCCN)C(=O)N[C@H](CCCCN)C(=O)N[C@H](Cc1c[nH]c2ccccc12)C(=O)N[C@H](Cc1ccccc1)C(=O)N[C@H](Cc1c[nH]c2ccccc12)C(=O)N[C@H](CC(C)C)C(=O)N[C@H](Cc1ccccc1)C(=O)N[C@H](CCCCN)C(=O)N[C@H](CCCCN)C(=O)N[C@H](CCCNC(=N)N)C(=O)O` [Chain311D] (H-[dK][dL][dK][dW][dF][dW][dL][dF][dK][dK][dR]-OH) gave a Minimum inhibitory concentration ([1]; Pseudomonas aeruginosa clinical strain 1) of 16, a Minimum inhibitory concentration ([1]; Pseudomonas aeruginosa clinical strain 2) of 8 and a Minimum inhibitory concentration ([1]; Pseudomonas aeruginosa clinical strain 3) of 16. The Minimum inhibitory concentration ([1]; Pseudomonas aeruginosa clinical strain 4) was 8, the Minimum inhibitory concentration ([1]; Pseudomonas aeruginosa clinical strain 5) was 4 and the Minimum inhibitory concentration ([2]; Candida albicans clinical yeast strain 1) was 8. The Minimum inhibitory concentration ([2]; Candida albicans clinical yeast strain 2) was 8, the Minimum inhibitory concentration ([2]; Candida albicans clinical yeast strain 3) was 8 and the Minimum inhibitory concentration ([2]; Candida albicans clinical yeast strain 4) was 16. The Minimum inhibitory concentration ([2]; Candida albicans clinical yeast strain 5) was 16, the Minimum inhibitory concentration [3] was 4 and the Minimum inhibitory concentration ([4]; C. parapsilosis clinical yeast strain 1) was 16. For the same molecule, the Minimum inhibitory concentration ([4]; C. parapsilosis clinical yeast strain 2) was 8, the Minimum inhibitory concentration ([4]; C. parapsilosis clinical yeast strain 3) was 8 and the Minimum inhibitory concentration ([4]; C. parapsilosis clinical yeast strain 4) was 8. The Minimum inhibitory concentration ([5]; Serratia marcescens clinical strain 1) was over 128, the Minimum inhibitory concentration ([5]; Serratia marcescens clinical strain 2) was over 128 and the Minimum inhibitory concentration ([5]; Serratia marcescens clinical strain 3) was over 128. It also gave a Minimum inhibitory concentration ([5]; Serratia marcescens clinical strain 4) of over 128, a Minimum inhibitory concentration ([5]; Serratia marcescens clinical strain 5) of over 128 and a Minimum inhibitory concentration ([6]; C. glabrata clinical yeast strain 1) of 16. It also gave a Minimum inhibitory concentration ([6]; C. glabrata clinical yeast strain 2) of 16, a Minimum inhibitory concentration ([6]; C. glabrata clinical yeast strain 3) of 8 and a Minimum inhibitory concentration ([6]; C. glabrata clinical yeast strain 4) of 64. It also gave a Minimum inhibitory concentration ([7]; Klebsiella pneumoniae clinical strain 1) of 8, a Minimum inhibitory concentration ([7]; Klebsiella pneumoniae clinical strain 2) of 8 and a Minimum inhibitory concentration ([7]; Klebsiella pneumoniae clinical strain 3) of 4. For the same molecule, the Minimum inhibitory concentration ([7]; Klebsiella pneumoniae clinical strain 4) was 8, the Minimum inhibitory concentration ([7]; Klebsiella pneumoniae clinical strain 5) was 4 and the Minimum inhibitory concentration ([8]; Escherichia coli clinical strain 1) was 2. The Minimum inhibitory concentration ([8]; Escherichia coli clinical strain 2) was 2, the Minimum inhibitory concentration ([8]; Escherichia coli clinical strain 3) was 1 and the Minimum inhibitory concentration ([8]; Escherichia coli clinical strain 4) was 0.5. For the same molecule, the Minimum inhibitory concentration ([8]; Escherichia coli clinical strain 5) was 1, the Minimum inhibitory concentration ([9]; Staphylococcus aureus clinical strain 1) was 1 and the Minimum inhibitory concentration ([9]; Staphylococcus aureus clinical strain 2) was 1. For the same molecule, the Minimum inhibitory concentration ([9]; Staphylococcus aureus clinical strain 3) was 1, the Minimum inhibitory concentration ([9]; Staphylococcus aureus clinical strain 4) was 1 and the Minimum inhibitory concentration ([9]; Staphylococcus aureus clinical strain 5) was 1. It also gave a Minimum inhibitory concentration ([10]; Proteus mirabilis clinical strain 1) of over 128, a Minimum inhibitory concentration ([10]; Proteus mirabilis clinical strain 2) of 128 and a Minimum inhibitory concentration ([10]; Proteus mirabilis clinical strain 3) of 128. The Minimum inhibitory concentration ([10]; Proteus mirabilis clinical strain 4) was over 128, the Minimum inhibitory concentration ([10]; Proteus mirabilis clinical strain 5) was over 128 and the Minimum inhibitory concentration ([11]; Streptococcus pneumoniae clinical strain 1) was 16. For the same molecule, the Minimum inhibitory concentration ([11]; Streptococcus pneumoniae clinical strain 2) was 8, the Minimum inhibitory concentration ([11]; Streptococcus pneumoniae clinical strain 3) was 16 and the Minimum inhibitory concentration ([11]; Streptococcus pneumoniae clinical strain 4) was 4. For the same molecule, the Minimum inhibitory concentration ([11]; Streptococcus pneumoniae clinical strain 5) was 8, the Minimum inhibitory concentration ([12]; Enterobacter cloacae clinical strain 1) was 4 and the Minimum inhibitory concentration ([12]; Enterobacter cloacae clinical strain 2) was 4. The Minimum inhibitory concentration ([12]; Enterobacter cloacae clinical strain 3) was 4, the Minimum inhibitory concentration ([12]; Enterobacter cloacae clinical strain 4) was 4 and the Minimum inhibitory concentration ([12]; Enterobacter cloacae clinical strain 5) was 2.
